US12060349B2, “Glucosylceramide synthase inhibitors” (Genzyme Corporation, priority 2012, dated 2024)
Where two headings read alike, the source gives them in different places.

Assays:
[1] = test system: GM3 expression on the cell surface, B16 mouse melanoma cells; experiment: cell based phenotypic assay, cell surface GM3 by antibody mediated immunofluorescence, B16 (GM3 B16 IC50); details: 50% inhibition of GM3 expression on the cell surface
Method: (§1) The cell based assay was performed in two different cell types, B16 and C32. Cell viability was also assessed in the second, cell-based assay.
(§2) The “Compound Number” in the table corresponds to the compound disclosed in the Example of the same number. […] The results of the cell based assays (performed in two different cell systems, i.e. B16 mouse melanoma or C32 human melanoma cells) are expressed as “GM3 B16 IC50” or “GM3 C32 IC50” for the B16 assay and the C32 assay, respectively. […] The results of the viability assays are expressed as “Viability, B16 IC50” or “Viability, C32 IC50”, respectively. These values represent the concentration of the compound causing 50% cell death. Values greater than 10 represent a lack of cell death.

[2] = test system: GM3 expression on the cell surface, C32 human melanoma cells; experiment: cell based phenotypic assay, cell surface GM3 by antibody mediated immunofluorescence, C32 (GM3 C32 IC50); details: 50% inhibition of GM3 expression on the cell surface
Method: as §1, §2

[3] = test system: B16 mouse melanoma cells; experiment: cell viability in the B16 cell-based assay (Viability, B16 IC50); details: read-out: Viability, B16 IC50, concentration causing 50% cell death, values greater than 10 represent a lack of cell death
Method: as §1, §2

[4] = test system: C32 human melanoma cells; experiment: cell viability in the C32 cell-based assay (Viability, C32 IC50); details: read-out: Viability, C32 IC50, concentration causing 50% cell death, values greater than 10 represent a lack of cell death
Method: as §1, §2

[5] = molecular target: T1, glucosylceramide synthase (Homo sapiens, UniProt Q16739); experiment: microsomal assay measuring conversion of ceramide to glucosylceramide by HPLC (GCS IC50); format: biochemical; details: concentration causing 50% inhibition of glucosylceramide synthase activity
T1 construct: Microsomes were isolated from A375 human melanoma cells; endogenous in cells; host or cells: A375 human melanoma cells (microsomal fraction, 100,000 g pellet)
T1 sequence (Q16739 1-394): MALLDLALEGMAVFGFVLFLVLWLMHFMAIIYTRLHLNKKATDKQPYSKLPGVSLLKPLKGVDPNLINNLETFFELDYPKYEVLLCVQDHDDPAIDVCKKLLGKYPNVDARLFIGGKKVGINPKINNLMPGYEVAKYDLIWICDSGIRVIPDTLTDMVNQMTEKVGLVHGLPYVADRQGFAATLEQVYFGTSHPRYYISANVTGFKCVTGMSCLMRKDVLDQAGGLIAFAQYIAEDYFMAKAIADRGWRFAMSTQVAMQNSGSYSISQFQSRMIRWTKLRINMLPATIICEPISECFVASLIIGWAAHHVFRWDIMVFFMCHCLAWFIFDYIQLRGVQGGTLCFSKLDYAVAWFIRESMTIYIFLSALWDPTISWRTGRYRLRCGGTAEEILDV
Method: Inhibition of glucosylceramide synthase activity for certain compounds of the invention were measured with 1) a microsomal assay that directly measures the conversion of ceramide to glucosylceramide by HPLC and 2) second, cell based, phenotypic assay that monitors cell surface expression of the downstream lipid GM3 by antibody mediated immunofluorescence. The cell based assay was performed in two different cell types, B16 and C32. Cell viability was also assessed in the second, cell-based assay.
The “Compound Number” in the table corresponds to the compound disclosed in the Example of the same number. The results of the microsomal assay are expressed as “GCS IC50”, which represents the concentration of the compound causing 50% inhibition of glucosylceramide synthase activity. The results of the cell based assays (performed in two different cell systems, i.e. B16 mouse melanoma or C32 human melanoma cells) are expressed as “GM3 B16 IC50” or “GM3 C32 IC50” for the B16 assay and the C32 assay, respectively. These values represent the concentration of the compound causing 50% inhibition of GM3 expression on the cell surface. The results of the viability assays are expressed as “Viability, B16 IC50” or “Viability, C32 IC50”, respectively. These values represent the concentration of the compound causing 50% cell death. Values greater than 10 represent a lack of cell death.

[6] = Mus musculus, read-out: GM3 B16 IC50, B16 mouse melanoma cells
[7] = Homo sapiens, read-out: GM3 C32 IC50, C32 human melanoma cells
[8] = Mus musculus, B16 mouse melanoma cells, read-out: GM3 B16 IC50
[9] = Homo sapiens, C32 human melanoma cells, read-out: GM3 C32 IC50

| SMILES | IC50 [1, 6] [µM] | IC50 [2, 7] [µM] | IC50 ([3]; B16 cells) [µM] | IC50 ([4]; C32 cells) [µM] | IC50 [5] [µM] | IC50 [1, 8] [µM] | IC50 [2, 9] [µM] | IC50 ([3]; Mus musculus, B16, B16 cells) [µM] | IC50 ([4]; Homo sapiens, C32, C32 cells) [µM] | IC50 ([1]; B16 mouse melanoma cells, read-out: GM3 B16 IC50) [µM] | IC50 ([2]; C32 human melanoma cells, read-out: GM3 C32 IC50) [µM] | IC50 ([3]; Mus musculus, B16 cells) [µM] | IC50 ([4]; Homo sapiens, C32 cells) [µM] |
| --- | --- | --- | --- | --- | --- | --- | --- | --- | --- | --- | --- | --- | --- |
| O=C(OC1CN2CCC1CC2)N1CCN(c2ccc(-c3ccccc3)cc2)CC1 (stereo not shown) [Example 6, Quinuclidin-3-yl 4-([1,1′-biphenyl]-4-yl)piperazine-1-carboxylate] | 3.52 | 1 | 5.21 | 4.12 | 5.6 |  |  |  |  |  |  |  |  |
| O=C(NC1CN2CCC1CC2)N1CCN(c2ccccc2)CC1 (stereo not shown) [Example 7, 4-Phenyl-N-(quinuclidin-3-yl)piperazine-1-carboxamide] |  |  |  |  | 12.2 | > 10 | 7.08 | ≥ 10 | ≥ 10 |  |  |  |  |
| O=C(NC1CCN2CCC1CC2)N1CCN(c2ccccc2)CC1 (stereo not shown) [Example 8, N-(1-Azabicyclo[3.2.2]nonan-4-yl)-4-phenylpiperazine-1-carboxamide] |  |  |  |  | 3.31 |  |  |  |  | > 10 | 0.518 | ≥ 10 | ≥ 10 |
| CC1(NC(=O)N2CCN(c3ccccc3)CC2)CN2CCC1CC2 (stereo not shown) [Example 9, N-(3-Methylquinuclidin-3-yl)-4-phenylpiperazine-1-carboxamide] |  |  |  |  | 12.2 | > 10 | 7.59 | ≥ 10 | ≥ 10 |  |  |  |  |
| CC1(NC(=O)N2CCN(c3ccccc3)CC2)CCN2CCC1CC2 (stereo not shown) [Example 10, N-(4-Methyl-1-azabicyclo[3.2.2]nonan-4-yl)-4-phenylpiperazine-1-carboxamide] |  |  |  |  | 14.7 | > 10 | 4.24 | ≥ 10 | ≥ 10 |  |  |  |  |
| O=C(N1CCN(c2ccccc2)CC1)N1CCN2CCC1CC2 [Example 11, 1,4-Diazabicyclo[3.2.2]nonan-4-yl(4-phenylpiperazin-1-yl)methanone] |  |  |  |  | 20.8 | > 10 | > 10 | ≥ 10 | ≥ 10 |  |  |  |  |
| O=C(OC1CN2CCC1CC2)N1CCN(c2ccccc2)CC1 (stereo not shown) [Example 12, Quinuclidin-3-yl 4-phenylpiperazine-1-carboxylate] | > 10 | > 10 | ≥ 10 | ≥ 10 | 12.2 |  |  |  |  |  |  |  |  |
| O=C(NC1CN2CCC1CC2)N1CCN(c2cccc(-c3ccccc3)c2)CC1 (stereo not shown) [Example 13, 4-([1,1′-Biphenyl]-3-yl)-N-(quinuclidin-3-yl)piperazine-1-carboxamide] |  |  |  |  | 2.47 | 6.8 | 0.697 | 8.59 | ≥ 10 |  |  |  |  |
| O=C(NC1CCN2CCC1CC2)N1CCN(c2cccc(-c3ccccc3)c2)CC1 (stereo not shown) [Example 14, 4-([1,1′-Biphenyl]-3-yl)-N-(1-azabicyclo[3.2.2]nonan-4-yl)piperazine-1-carboxamide] |  |  |  |  | 0.705 | 3.39 | 0.108 | 6.79 | ≥ 10 |  |  |  |  |
| CC1(NC(=O)N2CCN(c3cccc(-c4ccccc4)c3)CC2)CN2CCC1CC2 (stereo not shown) [Example 15, 4-([1,1′-Biphenyl]-3-yl)-N-(3-methylquinuclidin-3-yl)piperazine-1-carboxamide] |  |  |  |  | 0.839 | 0.368 | 0.172 | ≥ 10 | ≥ 10 |  |  |  |  |
| CC1(NC(=O)N2CCN(c3cccc(-c4ccccc4)c3)CC2)CCN2CCC1CC2 (stereo not shown) [Example 16, 4-([1,1′-Biphenyl]-3-yl)-N-(4-methyl-1-azabicyclo[3.2.2]nonan-4-yl)piperazine-1-carboxamide] |  |  |  |  | 0.0495 | 0.181 | 0.0124 | 6.76 | 1 |  |  |  |  |
| O=C(N1CCN(c2cccc(-c3ccccc3)c2)CC1)N1CCN2CCC1CC2 [Example 17, (4-([1,1′-Biphenyl]-3-yl)piperazin-1-yl)(1,4-diazabicyclo[3.2.2]nonan-4-yl)methanone] |  |  |  |  | 12.2 | 6.31 | 6.36 | ≥ 10 | ≥ 10 |  |  |  |  |
| O=C(OC1CN2CCC1CC2)N1CCN(c2cccc(-c3ccccc3)c2)CC1 (stereo not shown) [Example 18, Quinuclidin-3-yl 4-([1,1′-biphenyl]-3-yl)piperazine-1-carboxylate] | 2.04 | 0.563 | 8.36 | ≥ 10 | 0.551 |  |  |  |  |  |  |  |  |
| O=C(OC1CCN2CCC1CC2)N1CCN(c2cccc(-c3ccccc3)c2)CC1 (stereo not shown) [Example 19, 1-Azabicyclo[3.2.2]nonan-4-yl 4-([1,1′-biphenyl]-3-yl)piperazine-1-carboxylate] |  |  |  |  | 2.67 | 1.48 | 0.456 | 7.09 | 9.09 |  |  |  |  |
| O=C(OC1CC2CCN(CC2)C1)N1CCN(c2cccc(-c3ccccc3)c2)CC1 (stereo not shown) [Example 20, 1-Azabicyclo[3.2.2]nonan-3-yl 4-([1,1′-biphenyl]-3-yl)piperazine-1-carboxylate] |  |  |  |  | 16.6 | 4.47 | 10.7 | 7.71 | ≥ 15.1 |  |  |  |  |
| CCC1(NC(=O)N2CCN(c3cccc(-c4ccccc4)c3)CC2)CN2CCC1CC2 (stereo not shown) [Example 21, 4-([1,1′-Biphenyl]-3-yl)-N-(3-ethylquinuclidin-3-yl)piperazine-1-carboxamide] |  |  |  |  | 0.288 | 0.168 | 0.0252 | 7.23 | 3.16 |  |  |  |  |
| CCC1(NC(=O)N2CCN(c3cccc(-c4ccc(F)cc4)c3)CC2)CN2CCC1CC2 (stereo not shown) [Example 23, N-(3-Ethylquinuclidin-3-yl)-4-(4′-fluoro-[1,1′-biphenyl]-3-yl)piperazine-1-carboxamide] |  |  |  |  | 1.58 | 0.351 | 0.0909 | 7.07 | 3.16 |  |  |  |  |
| O=C(OC1CCN2CCC1CC2)N1CCN(c2cccc(-c3ccc(F)cc3)c2)CC1 (stereo not shown) [Example 24, 1-Azabicyclo[3.2.2]nonan-4-yl 4-(4′-fluoro-[1,1′-biphenyl]-3-yl)piperazine-1-carboxylate] |  |  |  |  | 9.52 | 1.68 | 1.08 | 3.61 | 3.98 |  |  |  |  |
| CC1(NC(=O)N2CCN(c3cccc(-c4ncccn4)c3)CC2)CCN2CCC1CC2 (stereo not shown) [Example 26, N-(4-Methyl-1-azabicyclo[3.2.2]nonan-4-yl)-4-(3-(pyrimidin-2-yl)phenyl)piperazine-1-carboxamide] |  |  |  |  | 6.9 | > 10 | 0.36 | ≥ 10 | ≥ 10 |  |  |  |  |
| CC(C)c1cccc(N2CCN(C(=O)NC3(C)CCN4CCC3CC4)CC2)c1 (stereo not shown) [Example 28, 4-(3-Isopropylphenyl)-N-(4-methyl-1-azabicyclo[3.2.2]nonan-4-yl)piperazine-1-carboxamide] |  |  |  |  | 1.59 | 1.44 | 0.0866 | ≥ 10 | 3.16 |  |  |  |  |
